This passage reports IC50 and Ki results from ChEMBL document CHEMBL1909046, “DrugMatrix in vitro pharmacology data”.

Each structure is given as a SMILES string.

Sequence of 5-hydroxytryptamine receptor 1B (P28564 whole entry): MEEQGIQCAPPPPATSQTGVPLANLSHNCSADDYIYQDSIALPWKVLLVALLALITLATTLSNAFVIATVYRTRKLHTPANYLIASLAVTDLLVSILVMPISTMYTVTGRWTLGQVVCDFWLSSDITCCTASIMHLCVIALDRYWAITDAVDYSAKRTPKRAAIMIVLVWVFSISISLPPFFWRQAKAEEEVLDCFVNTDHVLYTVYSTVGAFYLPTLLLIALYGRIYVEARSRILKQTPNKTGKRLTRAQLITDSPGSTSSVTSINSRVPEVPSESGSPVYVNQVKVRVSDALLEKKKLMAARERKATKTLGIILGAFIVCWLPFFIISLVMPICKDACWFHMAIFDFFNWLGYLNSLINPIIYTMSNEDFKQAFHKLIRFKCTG
Sequence of Substance-P receptor (P25103 whole entry): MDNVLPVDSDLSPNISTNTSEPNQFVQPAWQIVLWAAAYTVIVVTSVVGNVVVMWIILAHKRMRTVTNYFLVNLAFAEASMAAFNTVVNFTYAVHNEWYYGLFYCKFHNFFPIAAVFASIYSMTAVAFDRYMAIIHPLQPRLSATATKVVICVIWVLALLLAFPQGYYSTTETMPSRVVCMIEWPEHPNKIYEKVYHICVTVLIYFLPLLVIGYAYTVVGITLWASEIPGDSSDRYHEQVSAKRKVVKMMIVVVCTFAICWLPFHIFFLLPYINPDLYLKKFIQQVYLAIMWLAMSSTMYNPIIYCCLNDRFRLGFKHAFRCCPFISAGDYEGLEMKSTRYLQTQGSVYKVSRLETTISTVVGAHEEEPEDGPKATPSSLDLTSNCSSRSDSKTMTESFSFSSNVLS

The first data set deals with Kappa-type opioid receptor (Homo sapiens, UniProt P41145). In words: DRUGMATRIX: Opiate kappa (OP2, KOP) radioligand binding (ligand: [3H] Diprenorphine). The format is cell membranes, HEK293, Membrane. As to conditions: hek293; Not Active = under 50% inhibition at 10 µM.
Sequence of Kappa-type opioid receptor (P41145 whole entry): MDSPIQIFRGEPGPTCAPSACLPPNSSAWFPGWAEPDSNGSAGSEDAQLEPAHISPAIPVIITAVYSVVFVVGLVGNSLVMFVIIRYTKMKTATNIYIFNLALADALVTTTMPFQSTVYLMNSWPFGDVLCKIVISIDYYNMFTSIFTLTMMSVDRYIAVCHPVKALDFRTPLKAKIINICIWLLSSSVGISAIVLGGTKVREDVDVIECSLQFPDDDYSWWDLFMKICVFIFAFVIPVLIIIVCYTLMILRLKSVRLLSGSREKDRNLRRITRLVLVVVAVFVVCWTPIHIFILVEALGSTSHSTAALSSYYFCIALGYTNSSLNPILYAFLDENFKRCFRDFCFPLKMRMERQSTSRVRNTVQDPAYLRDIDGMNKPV
In the case of `CC(=O)Nc1cccc(O)c1` [METACETAMOL], the IC50 entry is “Not Active”.

For the compound `Cc1ncc([N+](=O)[O-])n1CCO` [METRONIDAZOLE], the IC50 entry is on record as “Not Active”.

On to `CC(C)(C(=O)c1cccnc1)c1cccnc1` [METYRAPONE], for which the IC50 entry is recorded as “Not Active”.

In the case of `CC(C)(Oc1ccc(C2CCCc3ccccc32)cc1)C(=O)O` (centres undefined) [NAFENOPIN], the IC50 result is recorded as “Not Active”.

As for `CC(C)[C@H]1CC[C@H](C(=O)N[C@H](Cc2ccccc2)C(=O)O)CC1` [NATEGLINIDE], the IC50 result is given as “Not Active”.

For `CCN[C@@H]1C[C@H](N)[C@@H](O[C@H]2OC(CN)=CC[C@H]2N)[C@H](O)[C@H]1O[C@H]1OC[C@](C)(O)[C@H](NC)[C@H]1O` [NETILMICIN], the IC50 result is “Not Active”.

`C#C[C@]1(OC(C)=O)CC[C@H]2[C@@H]3CCC4=CC(=O)CC[C@@H]4[C@H]3CC[C@@]21C` [NORETHINDRONE ACETATE]: the IC50 result is recorded as “Not Active”.

For the compound `COc1ccc2[nH]c([S+]([O-])Cc3ncc(C)c(OC)c3C)nc2c1` (centres undefined) [OMEPRAZOLE], the IC50 entry is “Not Active”.

In the case of `Cc1nccn1CC1CCc2c(c3ccccc3n2C)C1=O` (centres undefined) [ONDANSETRON], the IC50 entry is given as “Not Active”.

Test system in another data set: not listed separately
As to the kind of experiment: DRUGMATRIX: Glutamate, NMDA, Phencyclidine radioligand binding (ligand: [3H] TCP). The class given is cell membranes, Rattus norvegicus, Wistar, Cerebral cortex, Membrane. As to conditions: Not Active = under 50% inhibition at 10 µM.
In the case of `CC(=O)Nc1cccc(O)c1` [METACETAMOL], the IC50 entry was “Not Active” and the Ki result was “Not Active”.

Take `Cc1ncc([N+](=O)[O-])n1CCO` [METRONIDAZOLE]: the IC50 result is listed as “Not Active” and the Ki result was “Not Active”.

As for `CC(C)(C(=O)c1cccnc1)c1cccnc1` [METYRAPONE], the IC50 result is “Not Active” and the Ki result is recorded as “Not Active”.

Regarding `CC(C)(Oc1ccc(C2CCCc3ccccc32)cc1)C(=O)O` (centres undefined) [NAFENOPIN], the IC50 result is recorded as “Not Active” and the Ki result is recorded as “Not Active”.

As to `CC(C)[C@H]1CC[C@H](C(=O)N[C@H](Cc2ccccc2)C(=O)O)CC1` [NATEGLINIDE], the IC50 entry is recorded as “Not Active” and the Ki result is listed as “Not Active”.

For the compound `CCN[C@@H]1C[C@H](N)[C@@H](O[C@H]2OC(CN)=CC[C@H]2N)[C@H](O)[C@H]1O[C@H]1OC[C@](C)(O)[C@H](NC)[C@H]1O` [NETILMICIN], the IC50 result was “Not Active” and the Ki entry is “Not Active”.

Consider `C#C[C@]1(OC(C)=O)CC[C@H]2[C@@H]3CCC4=CC(=O)CC[C@@H]4[C@H]3CC[C@@]21C` [NORETHINDRONE ACETATE], for which the IC50 entry is on record as “Not Active” and the Ki result is listed as “Not Active”.

As for `COc1ccc2[nH]c([S+]([O-])Cc3ncc(C)c(OC)c3C)nc2c1` (centres undefined) [OMEPRAZOLE], the IC50 result was “Not Active” and the Ki entry is reported as “Not Active”.

Turning to `Cc1nccn1CC1CCc2c(c3ccccc3n2C)C1=O` (centres undefined) [ONDANSETRON], the IC50 result is reported as “Not Active” and the Ki entry is given as “Not Active”.

The target in a further data set is Voltage-gated inwardly rectifying potassium channel KCNH2 (Homo sapiens, UniProt Q12809). Conditions: hek293. Further: in other assays of this panel Not Active means under 50% inhibition at 10 µM.
Sequence of Voltage-gated inwardly rectifying potassium channel KCNH2 (Q12809 whole entry): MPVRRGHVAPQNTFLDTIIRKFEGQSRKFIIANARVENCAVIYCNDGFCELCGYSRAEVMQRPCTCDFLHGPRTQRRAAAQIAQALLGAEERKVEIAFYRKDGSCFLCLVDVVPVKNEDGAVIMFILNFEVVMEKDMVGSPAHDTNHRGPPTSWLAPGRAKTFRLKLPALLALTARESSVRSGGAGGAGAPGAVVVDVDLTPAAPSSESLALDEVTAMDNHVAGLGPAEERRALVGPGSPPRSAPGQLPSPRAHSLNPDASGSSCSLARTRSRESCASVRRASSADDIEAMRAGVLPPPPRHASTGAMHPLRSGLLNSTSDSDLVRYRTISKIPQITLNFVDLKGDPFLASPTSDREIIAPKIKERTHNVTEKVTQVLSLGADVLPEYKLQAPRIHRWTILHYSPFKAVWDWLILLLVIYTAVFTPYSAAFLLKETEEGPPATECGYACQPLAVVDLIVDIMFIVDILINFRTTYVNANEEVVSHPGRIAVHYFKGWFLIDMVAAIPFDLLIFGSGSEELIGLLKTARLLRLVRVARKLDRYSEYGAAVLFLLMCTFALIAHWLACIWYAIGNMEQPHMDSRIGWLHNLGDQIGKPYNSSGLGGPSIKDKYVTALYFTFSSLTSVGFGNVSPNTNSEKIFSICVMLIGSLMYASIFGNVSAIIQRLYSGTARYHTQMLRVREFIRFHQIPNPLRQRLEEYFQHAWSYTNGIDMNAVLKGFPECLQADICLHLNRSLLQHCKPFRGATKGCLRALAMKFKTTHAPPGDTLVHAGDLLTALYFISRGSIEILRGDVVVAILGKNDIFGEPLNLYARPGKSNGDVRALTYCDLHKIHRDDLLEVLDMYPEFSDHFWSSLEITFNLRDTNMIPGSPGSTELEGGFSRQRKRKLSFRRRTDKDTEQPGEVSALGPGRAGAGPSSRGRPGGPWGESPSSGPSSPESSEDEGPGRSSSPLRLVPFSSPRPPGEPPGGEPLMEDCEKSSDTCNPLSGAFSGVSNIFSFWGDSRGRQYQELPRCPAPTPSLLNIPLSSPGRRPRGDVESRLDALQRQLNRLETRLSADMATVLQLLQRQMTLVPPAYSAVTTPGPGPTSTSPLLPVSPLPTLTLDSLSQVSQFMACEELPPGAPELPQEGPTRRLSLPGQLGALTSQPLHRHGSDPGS
As to `CC(=O)Nc1cccc(O)c1` [METACETAMOL], the IC50 result is reported as “Not Active” and the Ki entry is “Not Active”.

As to `Cc1ncc([N+](=O)[O-])n1CCO` [METRONIDAZOLE], the IC50 result is given as “Not Active” and the Ki entry was “Not Active”.

With `CC(C)(C(=O)c1cccnc1)c1cccnc1` [METYRAPONE], the IC50 entry is given as “Not Active” and the Ki entry is reported as “Not Active”.

For `CC(C)(Oc1ccc(C2CCCc3ccccc32)cc1)C(=O)O` (centres undefined) [NAFENOPIN], the IC50 result was “Not Active” and the Ki entry is reported as “Not Active”.

Turning to `CC(C)[C@H]1CC[C@H](C(=O)N[C@H](Cc2ccccc2)C(=O)O)CC1` [NATEGLINIDE], the IC50 entry was “Not Active” and the Ki result was “Not Active”.

Take `CCN[C@@H]1C[C@H](N)[C@@H](O[C@H]2OC(CN)=CC[C@H]2N)[C@H](O)[C@H]1O[C@H]1OC[C@](C)(O)[C@H](NC)[C@H]1O` [NETILMICIN]: the IC50 entry was “Not Active” and the Ki entry is given as “Not Active”.

`C#C[C@]1(OC(C)=O)CC[C@H]2[C@@H]3CCC4=CC(=O)CC[C@@H]4[C@H]3CC[C@@]21C` [NORETHINDRONE ACETATE]: the IC50 entry is recorded as “Not Active” and the Ki result was “Not Active”.

With `COc1ccc2[nH]c([S+]([O-])Cc3ncc(C)c(OC)c3C)nc2c1` (centres undefined) [OMEPRAZOLE], the IC50 entry is “Not Active” and the Ki entry is recorded as “Not Active”.

Turning to `Cc1nccn1CC1CCc2c(c3ccccc3n2C)C1=O` (centres undefined) [ONDANSETRON], the IC50 entry was “Not Active” and the Ki result is listed as “Not Active”.

The next data set addresses 5-hydroxytryptamine receptor 1B (Rattus norvegicus, UniProt P28564). The class given is cell membranes, Wistar, Cerebral cortex, Membrane.
Settings: not given
Regarding `CC(=O)Nc1cccc(O)c1` [METACETAMOL], the IC50 result is on record as “Not Active”.

Turning to `Cc1ncc([N+](=O)[O-])n1CCO` [METRONIDAZOLE], the IC50 entry is listed as “Not Active”.

Consider `CC(C)(C(=O)c1cccnc1)c1cccnc1` [METYRAPONE], for which the IC50 result is given as “Not Active”.

As for `CC(C)(Oc1ccc(C2CCCc3ccccc32)cc1)C(=O)O` (centres undefined) [NAFENOPIN], the IC50 entry is on record as “Not Active”.

`CC(C)[C@H]1CC[C@H](C(=O)N[C@H](Cc2ccccc2)C(=O)O)CC1` [NATEGLINIDE]: the IC50 result is given as “Not Active”.

For `CCN[C@@H]1C[C@H](N)[C@@H](O[C@H]2OC(CN)=CC[C@H]2N)[C@H](O)[C@H]1O[C@H]1OC[C@](C)(O)[C@H](NC)[C@H]1O` [NETILMICIN], the IC50 entry is listed as “Not Active”.

With `C#C[C@]1(OC(C)=O)CC[C@H]2[C@@H]3CCC4=CC(=O)CC[C@@H]4[C@H]3CC[C@@]21C` [NORETHINDRONE ACETATE], the IC50 result is “Not Active”.

Consider `COc1ccc2[nH]c([S+]([O-])Cc3ncc(C)c(OC)c3C)nc2c1` (centres undefined) [OMEPRAZOLE], for which the IC50 entry is listed as “Not Active”.

For `Cc1nccn1CC1CCc2c(c3ccccc3n2C)C1=O` (centres undefined) [ONDANSETRON], the IC50 entry is reported as “Not Active”.

Test system in another data set: not listed separately
As to the kind of experiment: DRUGMATRIX: Platelet-Derived Growth Factor (PDGF) radioligand binding (ligand: [125I] PDGF). The class given is cell-based. Conditions: nih3t3; Not Active = under 50% inhibition at 10 µM.
`CC(=O)Nc1cccc(O)c1` [METACETAMOL]: the IC50 result is on record as “Not Active” and the Ki entry was “Not Active”.

Regarding `Cc1ncc([N+](=O)[O-])n1CCO` [METRONIDAZOLE], the IC50 result is on record as “Not Active” and the Ki entry is given as “Not Active”.

On to `CC(C)(C(=O)c1cccnc1)c1cccnc1` [METYRAPONE], for which the IC50 entry is “Not Active” and the Ki result is “Not Active”.

Take `CC(C)(Oc1ccc(C2CCCc3ccccc32)cc1)C(=O)O` (centres undefined) [NAFENOPIN]: the IC50 entry was “Not Active” and the Ki result is “Not Active”.

Take `CC(C)[C@H]1CC[C@H](C(=O)N[C@H](Cc2ccccc2)C(=O)O)CC1` [NATEGLINIDE]: the IC50 entry is listed as “Not Active” and the Ki result is given as “Not Active”.

Turning to `CCN[C@@H]1C[C@H](N)[C@@H](O[C@H]2OC(CN)=CC[C@H]2N)[C@H](O)[C@H]1O[C@H]1OC[C@](C)(O)[C@H](NC)[C@H]1O` [NETILMICIN], the IC50 entry is listed as “Not Active” and the Ki entry is “Not Active”.

For the compound `C#C[C@]1(OC(C)=O)CC[C@H]2[C@@H]3CCC4=CC(=O)CC[C@@H]4[C@H]3CC[C@@]21C` [NORETHINDRONE ACETATE], the IC50 result is “Not Active” and the Ki result is listed as “Not Active”.

As for `COc1ccc2[nH]c([S+]([O-])Cc3ncc(C)c(OC)c3C)nc2c1` (centres undefined) [OMEPRAZOLE], the IC50 entry was “Not Active” and the Ki result is listed as “Not Active”.

`Cc1nccn1CC1CCc2c(c3ccccc3n2C)C1=O` (centres undefined) [ONDANSETRON]: the IC50 entry is given as “Not Active” and the Ki entry was “Not Active”.

Another data set has as its target Substance-P receptor (Homo sapiens, UniProt P25103). The format is cell membranes, Membrane. As to conditions: cho. Further: in other assays of this panel Not Active means under 50% inhibition at 10 µM.
Take `CC(=O)Nc1cccc(O)c1` [METACETAMOL]: the IC50 entry is recorded as “Not Active”.

In the case of `Cc1ncc([N+](=O)[O-])n1CCO` [METRONIDAZOLE], the IC50 entry is “Not Active”.

Consider `CC(C)(C(=O)c1cccnc1)c1cccnc1` [METYRAPONE], for which the IC50 entry is “Not Active”.

Consider `CC(C)(Oc1ccc(C2CCCc3ccccc32)cc1)C(=O)O` (centres undefined) [NAFENOPIN], for which the IC50 entry is given as “Not Active”.

In the case of `CC(C)[C@H]1CC[C@H](C(=O)N[C@H](Cc2ccccc2)C(=O)O)CC1` [NATEGLINIDE], the IC50 entry was “Not Active”.

With `CCN[C@@H]1C[C@H](N)[C@@H](O[C@H]2OC(CN)=CC[C@H]2N)[C@H](O)[C@H]1O[C@H]1OC[C@](C)(O)[C@H](NC)[C@H]1O` [NETILMICIN], the IC50 result is given as “Not Active”.

Regarding `C#C[C@]1(OC(C)=O)CC[C@H]2[C@@H]3CCC4=CC(=O)CC[C@@H]4[C@H]3CC[C@@]21C` [NORETHINDRONE ACETATE], the IC50 result was “Not Active”.

Regarding `COc1ccc2[nH]c([S+]([O-])Cc3ncc(C)c(OC)c3C)nc2c1` (centres undefined) [OMEPRAZOLE], the IC50 entry is given as “Not Active”.

Regarding `Cc1nccn1CC1CCc2c(c3ccccc3n2C)C1=O` (centres undefined) [ONDANSETRON], the IC50 entry is on record as “Not Active”.

The target in the next data set is Cytochrome P450 2C9 (Homo sapiens, UniProt P11712). Conditions: bti-tn-5b1-4. Further: in other assays of this panel Not Active means under 50% inhibition at 10 µM.
Sequence of Cytochrome P450 2C9 (P11712 whole entry): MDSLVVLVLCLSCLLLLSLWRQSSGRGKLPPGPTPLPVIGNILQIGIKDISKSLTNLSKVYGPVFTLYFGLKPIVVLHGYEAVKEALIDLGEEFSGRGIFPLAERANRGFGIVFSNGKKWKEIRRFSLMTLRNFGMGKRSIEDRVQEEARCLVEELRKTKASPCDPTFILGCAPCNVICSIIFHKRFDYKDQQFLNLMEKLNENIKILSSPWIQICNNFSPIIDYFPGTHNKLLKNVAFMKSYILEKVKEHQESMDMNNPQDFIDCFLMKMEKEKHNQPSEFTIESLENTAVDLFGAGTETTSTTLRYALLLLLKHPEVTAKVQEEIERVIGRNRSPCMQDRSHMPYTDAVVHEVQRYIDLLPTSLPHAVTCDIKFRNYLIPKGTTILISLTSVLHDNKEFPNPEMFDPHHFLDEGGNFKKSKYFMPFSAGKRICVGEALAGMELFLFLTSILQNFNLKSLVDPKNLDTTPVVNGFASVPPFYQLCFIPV
As to `CC(=O)Nc1cccc(O)c1` [METACETAMOL], the IC50 entry is listed as “Not Active” and the Ki result is on record as “Not Active”.

Take `Cc1ncc([N+](=O)[O-])n1CCO` [METRONIDAZOLE]: the IC50 result is reported as “Not Active” and the Ki result was “Not Active”.

For `CC(C)(C(=O)c1cccnc1)c1cccnc1` [METYRAPONE], the IC50 entry is reported as “Not Active” and the Ki entry is reported as “Not Active”.

Consider `CC(C)(Oc1ccc(C2CCCc3ccccc32)cc1)C(=O)O` (centres undefined) [NAFENOPIN], for which the IC50 result is listed as “Not Active” and the Ki result is given as “Not Active”.

Regarding `CC(C)[C@H]1CC[C@H](C(=O)N[C@H](Cc2ccccc2)C(=O)O)CC1` [NATEGLINIDE], the IC50 entry is given as “Not Active” and the Ki entry is listed as “Not Active”.

Turning to `CCN[C@@H]1C[C@H](N)[C@@H](O[C@H]2OC(CN)=CC[C@H]2N)[C@H](O)[C@H]1O[C@H]1OC[C@](C)(O)[C@H](NC)[C@H]1O` [NETILMICIN], the IC50 result is reported as “Not Active” and the Ki entry is listed as “Not Active”.

As to `C#C[C@]1(OC(C)=O)CC[C@H]2[C@@H]3CCC4=CC(=O)CC[C@@H]4[C@H]3CC[C@@]21C` [NORETHINDRONE ACETATE], the IC50 entry is “Not Active” and the Ki entry was “Not Active”.

For `COc1ccc2[nH]c([S+]([O-])Cc3ncc(C)c(OC)c3C)nc2c1` (centres undefined) [OMEPRAZOLE], the IC50 result is reported as “Not Active” and the Ki result is recorded as “Not Active”.

With `Cc1nccn1CC1CCc2c(c3ccccc3n2C)C1=O` (centres undefined) [ONDANSETRON], the IC50 entry is given as “Not Active” and the Ki result was “Not Active”.
